“Also recorded” adds a separate entry of the source.
Assays:
[1] = system: nonalcoholic steatohepatitis (NASH) mice; experiment: Liver CID (NASH) in vivo experiment, methionine-choline deficient (MCD) diet; settings: 2 mg/kg subcutaneous B.I.D
Description: Female 5-week-old C57BL/6 mice were purchased form KOATEC (Pyeongtaek, South Korea) and were fed Methionine-Choline diet (MCD) for 4 weeks. When the mice weighed 15 g each, the mice were autopsied randomly to identify nonalcoholic steatohepatitis (NASH).
Mouse liver tissues (n=5) were dissected and fixed in 4% paraformaldehyde PBS solution for 15 h at 4° C. Fixed liver tissues were embedded in paraffin and sectioned at 10 μm. Slides were incubated at 55° C. for 2 h, and subsequently deparaffinized in xylene and rehydrated in a graded ethanol series and used for hematoxylin (Merck, Darmstadt, Germany) and eosin (H&E) staining (35). Paraffin sections (10 μm thick) stained with H&E were imaged using a Leica DM 1000 LED microscope (Leica Microsystems, Wetzlar, Germany).
Mouse liver tissues (n=5) were dissected and fixed in 4% paraformaldehyde PBS solution for 15 h at 4° C. Fixed tissues were embedded in paraffin and sectioned at 5 mm. Slides were incubated at 55° C. for 2 h, and subsequently deparaffinized in xylene and rehydrated in a graded ethanol series and re-fix in Bouin's solution for 1 hr at 56° C., remove the yellow color to rinse running tap water for 5-10 min and stained Biebrich scarlet-acid fuchsin solution for 5 min then in phosphomolybdic-phosphotungstic acid solution (ratio 1:1) for 30 minutes, and aniline blue solution and stain for 15 minutes. Rinse briefly in distilled water and in 1% acetic acid solution for 2-5 min. […] Mount with mounting medium. Imaged using a Leica DM 1000 LED microscope (Leica Microsystems, Wetzlar, Germany).
Animal Model for liver diseases. […] Female 5-week-old C57BL/6 mice were purchased form KOATEC (Pyeongtaek, South Korea) and were fed Methionine-Choline (MCD) diet for 4 weeks. […] Histological analysis. Mouse Liver tissues (n=5) were dissected and fixed in 4% paraformaldehyde PBS solution for 15 h at 4° C. Fixed liver tissues were embedded in paraffin and sectioned at 10 μm. Slides were incubated at 55° C. for 2 h, and subsequently deparaffinized in xylene and rehydrated in a graded ethanol series and used for hematoxylin (Merck, Darmstadt, Germany) and eosin (H&E) staining. Paraffin sections (10 μm thick) stained with H&E were imaged using a Leica DM 1000 LED microscope (Leica Microsystems, Wetzlar, Germany
Masson Trichrome Stain. Mouse Liver tissues (n=5) were dissected and fixed in 4% paraformaldehyde PBS solution for 15 h at 4° C. Fixed tissues were embedded in paraffin and sectioned at 5 mm. Slides were incubated at 55° C. for 2 h, and subsequently deparaffinized in xylene and rehydrated in a graded ethanol series and re-fix in Bouin's solution for 1 hr at 56° C., remove the yellow color to rinse running tap water at 5-10 min and stained Biebrich scarlet-acid fuchsin solution for 5 min than in phosphomolybdic-phosphotungstic acid solution (ratio 1:1) for minutes, and aniline blue solution and stain for 15 minutes. Rinse briefly in distilled water and in 1% acetic acid solution for 2-5 minutes. […] Mount with mounting medium. Imaged using a Leica DM 1000 LED microscope (Leica Microsystems, Wetzlar, Germany).
To induce NASH, mice were fed methionine-choline deficient (MCD) diet with polyunsaturated fat for 8 weeks. […] Results are MEAN±SD.

[2] = system: lactate dehydrogenase A; experiment: Human endothelial cell in vitro experiment, Western blot in HUVEC; format: cell-based; settings: 2.5 mM, human umbilical vein endothelial cells
Description: Human Umbilical Vein Endothelial cell line, HUVEC, was purchased from American Type Culture Collection (Manassas, VA, USA). The HUVEC cells were Endothelial Cell Growth Medium 2 maintained in Endothelial Cell Growth Medium 2 Supplement MIX (PromoCell, Heidelberg, Germany)
To prepare whole cell lysate, cells were lysed with lysis buffer (1% NP-40, 0.25% sodium deoxycholate, 150 mM NaCl, 1 mM EDTA, 1% Triton X-100, 50 mM Tris-HCl (pH 7.4), 10% Glycerol) with protease inhibitor cocktail (Roche, Basel, Switzerland) and phosphatase inhibitors (NA3VO4 1 mM, NaF 100 mM). Then, protein concentration was measured using the Bicinchoninic acid (BCA) assay kit (Thermo Scientific, Waltham, MA). Whole cell or nuclear lysates were transferred onto polyvinylidene fluoride membranes (Merck Millipore, Billerica, MA, USA). After blocking in 5% non-fat milk (Bio-Rad, Hercules, CA, USA) for 1 h, the membranes were incubated overnight at 4° C. with primary antibody diluted in TBST containing 100 mM Tris-HCl (pH 7.5), 1.5 M NaCl, and 0.5% Tween-20 obtained from Sigma-Aldrich, to which 5% BSA and 0.1% sodium azide (Sigma-Aldrich) had been added. Specific primary antibodies to HIF-1α (1:1000), HIF-2α (1:1000), LDH-A (1:1000), LDH-B (1:1000), TLR-4 (1:1000), NF-κB (1:1000), VEGF (1:1000), α-tubulin (1:1000), Actin (1:1000), and GAPDH (1:5000). […]

`CC(O)C(=O)[O-].CC(O)C(=O)[O-].[Ca+2]` (stereo not shown) [calcium lactate] was tested, and the “liver fibrosis (collagen accumulation)” value ([1]; Masson trichrome) was “not present”, the “serum alanine aminotransferase (ALT)” value ([1]; P<0.001 vs. MCD) was “significantly decreased” and the “serum aspartate aminotransferase (AST)” value ([1]; P<0.001 vs. MCD) was “significantly decreased”. For the same molecule, the “immune cell infiltration in the liver” value ([1]; histology) was “decreased”, the “lipid droplets in the liver” value ([1]; histology) was “not observed; also recorded: not present” and the liver steatosis ([1]; histology) was “prevented”. For the same molecule, the “hypoxia-mediated factors (lactate dehydrogenase A), Western blot” value [2] was “decreased”.
